In patent EP1501554B1, “BENZOTHIENYL ANALOGUE OF SOMATOSTATINE, SELECTIVE FOR CERTAIN SOMATOSTATIN RECEPTORS” (Advanced Accelerator Applications USA, Inc., priority 2002, dated 2003):
Like-named read-outs stand apart in the source and are kept apart here.

Tests used:
[1] = molecular target: T1, hsst 2 (Homo sapiens, UniProt P30874); experiment: In vitro binding affinity, transfected cell lines, hsst 2; settings: IC50±SEM; applicant's series, with own SS-28 reference
T1 construct: expressed in transfected cells
T1 sequence (P30874 whole entry): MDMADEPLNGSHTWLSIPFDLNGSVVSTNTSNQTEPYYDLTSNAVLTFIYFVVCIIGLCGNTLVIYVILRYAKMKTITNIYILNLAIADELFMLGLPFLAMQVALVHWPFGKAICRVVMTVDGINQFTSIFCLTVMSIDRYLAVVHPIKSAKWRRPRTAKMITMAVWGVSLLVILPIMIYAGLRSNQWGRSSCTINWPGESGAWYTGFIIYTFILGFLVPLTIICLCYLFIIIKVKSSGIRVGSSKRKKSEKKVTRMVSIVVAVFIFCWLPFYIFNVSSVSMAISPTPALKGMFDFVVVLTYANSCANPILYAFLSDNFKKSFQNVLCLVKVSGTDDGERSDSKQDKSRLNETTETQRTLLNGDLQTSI

[2] = molecular target: T2, hsst 3 (Homo sapiens, UniProt P32745); experiment: In vitro binding affinity, transfected cell lines, hsst 3; settings: IC50±SEM; applicant's series, with own SS-28 reference
T2 construct: expressed in transfected cells
T2 sequence (P32745 whole entry): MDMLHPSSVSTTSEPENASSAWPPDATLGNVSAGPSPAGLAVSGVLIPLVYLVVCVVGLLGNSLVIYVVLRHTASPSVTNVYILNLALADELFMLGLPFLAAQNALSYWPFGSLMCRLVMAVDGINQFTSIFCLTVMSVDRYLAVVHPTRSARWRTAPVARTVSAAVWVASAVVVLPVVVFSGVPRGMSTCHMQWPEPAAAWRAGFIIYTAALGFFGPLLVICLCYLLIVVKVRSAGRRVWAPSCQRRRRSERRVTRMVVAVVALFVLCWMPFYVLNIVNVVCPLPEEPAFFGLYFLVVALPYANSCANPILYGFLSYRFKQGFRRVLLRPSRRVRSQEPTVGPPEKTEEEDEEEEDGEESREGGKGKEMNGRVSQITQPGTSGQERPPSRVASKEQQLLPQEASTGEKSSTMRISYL

[3] = molecular target: T3, hsst 4 (Homo sapiens, UniProt P31391); experiment: In vitro binding affinity, transfected cell lines, hsst 4; settings: IC50±SEM; applicant's series, with own SS-28 reference
T3 construct: expressed in transfected cells
T3 sequence (P31391 whole entry): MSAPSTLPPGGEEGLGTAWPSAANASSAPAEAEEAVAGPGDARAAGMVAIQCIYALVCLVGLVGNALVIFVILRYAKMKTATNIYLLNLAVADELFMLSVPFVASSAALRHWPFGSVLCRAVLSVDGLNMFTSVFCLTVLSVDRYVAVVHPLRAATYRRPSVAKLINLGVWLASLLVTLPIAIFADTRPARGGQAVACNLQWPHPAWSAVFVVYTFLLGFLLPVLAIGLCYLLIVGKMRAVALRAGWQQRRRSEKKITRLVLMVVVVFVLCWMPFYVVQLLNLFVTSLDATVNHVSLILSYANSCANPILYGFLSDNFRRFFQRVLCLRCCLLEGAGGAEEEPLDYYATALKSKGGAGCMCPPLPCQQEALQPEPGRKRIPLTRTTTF

[4] = molecular target: T4, hsst 5 (Homo sapiens, UniProt P35346); experiment: In vitro binding affinity, transfected cell lines, hsst 5; settings: IC50±SEM; applicant's series, with own SS-28 reference
T4 construct: expressed in transfected cells
T4 sequence (P35346 whole entry): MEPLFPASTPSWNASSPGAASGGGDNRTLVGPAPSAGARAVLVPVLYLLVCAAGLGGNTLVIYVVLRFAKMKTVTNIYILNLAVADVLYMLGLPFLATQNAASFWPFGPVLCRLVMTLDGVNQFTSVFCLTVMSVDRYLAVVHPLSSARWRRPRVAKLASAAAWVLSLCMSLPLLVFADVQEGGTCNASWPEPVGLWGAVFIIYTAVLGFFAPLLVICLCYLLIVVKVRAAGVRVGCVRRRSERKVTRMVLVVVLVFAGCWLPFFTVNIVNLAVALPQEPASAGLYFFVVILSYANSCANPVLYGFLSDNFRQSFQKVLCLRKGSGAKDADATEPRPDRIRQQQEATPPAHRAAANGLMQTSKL

[5] = molecular target: T1, hsst 2; settings: IC50±SEM; published series (Reubi et al.), referenced to SS-28; cited from earlier work
[6] = molecular target: T2, hsst 3; settings: IC50±SEM; published series (Reubi et al.), referenced to SS-28; cited from earlier work
[7] = molecular target: T3, hsst 4; settings: IC50±SEM; published series (Reubi et al.), referenced to SS-28; cited from earlier work
[8] = molecular target: T4, hsst 5; settings: IC50±SEM; published series (Reubi et al.), referenced to SS-28; cited from earlier work

## C[C@@H](O)[C@H](NC(=O)[C@@H]1CSSC[C@H](NC(=O)[C@H](N)Cc2ccccc2)C(=O)N[C@@H](Cc2csc3ccccc23)C(=O)N[C@H](Cc2c[nH]c3ccccc23)C(=O)N[C@@H](CCCCN)C(=O)N[C@@H]([C@@H](C)O)C(=O)N1)C(=O)O [compound 13, H-(D)Phe-cyclo[Cys-3-benzothienylalanyl-(D)Trp-Lys-Thr-Cys]-Thr-OH]
[1]
  IC50: 0.43 nM
[2]
  IC50: 27 nM
[3]
  IC50: 60 nM
[4]
  IC50: 2.1 nM

## C[C@@H](O)[C@@H]1NC(=O)[C@H](CCCCN)NC(=O)[C@@H](Cc2c[nH]c3ccccc23)NC(=O)[C@H](Cc2cccc3ccccc23)NC(=O)[C@@H](NC(=O)[C@@H](Cc2ccccc2)NC(=O)CN2CCN(CC(=O)O)CCN(CC(=O)O)CCN(CC(=O)O)CC2)CSSC[C@@H](C(=O)N[C@H](CO)[C@@H](C)O)NC1=O [cpd. 8, Y-DOTA-[1-Nal^3]-OC]
[1]
  IC50: 3.3 ± 0.2 nM
[2]
  IC50: 26 ± 1.9 nM
[3]
  IC50: > 1000 nM
[4]
  IC50: 10 ± 1.6 nM

## C[C@@H](O)[C@H](NC(=O)[C@@H]1CSSC[C@H](NC(=O)[C@@H](Cc2ccccc2)NC(=O)CN2CCN(CC(=O)O)CCN(CC(=O)O)CCN(CC(=O)O)CC2)C(=O)N[C@@H](Cc2csc3ccccc23)C(=O)N[C@H](Cc2c[nH]c3ccccc23)C(=O)N[C@@H](CCCCN)C(=O)N[C@@H]([C@@H](C)O)C(=O)N1)C(=O)O [cpd. 11, ^111In-labelled DOTA-(D)Phe-cyclo[Cys-3-benzothienylalanyl-(D)Trp-Lys-Thr-Cys]Thr-OH, metal not drawn]
[1]
  IC50: 1.1 nM
[2]
  IC50: 7 nM
[3]
  IC50: 110 nM
[4]
  IC50: 4 nM

## Y-DOTA-LAN [cpd. 5]
[5]
  IC50: 23 ± 5 nM
[6]
  IC50: 290 ± 105 nM
[7]
  IC50: > 1000 nM
[8]
  IC50: 16 ± 3.4 nM

## Y-DOTA-OC [compound 4]
[5]
  IC50: 20 ± 2 nM
[7]
  IC50: > 1000 nM

## Y-DOTA-TOC [cpd. 6]
[5]
  IC50: 11 ± 1.7 nM
[7]
  IC50: > 10000 nM
